Test results as given in patent US9788539B2, “Platelet protection solution having beta-galactosidase and sialidase inhibitors” (Velico Medical, Inc., priority 2011, dated 2017).
Entries after “also recorded” stand apart in the source; their conditions may differ.

What was measured:
mouse platelets [1] = assay: Sialidase (neuraminidase)-induced loss of platelet surface receptors, flow cytometry and immunoblot; type: cell-based; conditions: mouse platelets, flow cytometry and Western blot
[2] = test system: Serratia marcescens strain (ATCC #43862); assay: Planktonic growth of S. marcescens in 96-well PVC plate; type: cell-based; conditions: 1 mM DANA, 48 h, 30% plasma in PAS, 30% PC in PAS or 100% plasma
Description: Serratia marcescens strain (ATCC #43862) was purchased from American Type Culture Collection (Manassas, Va.). Cells were grown in brain-heart infusion broth (ATCC media 3) at 37° C. and 250 rpm. Frozen stocks were prepared from overnight culture and stored at −80° C. in brain-heart infusion broth containing 15% glycerol by volume. To prepare the seed culture, the cryostock of Serratia marcescens was inoculated into 3 mL of brain-heart infusion broth with a cotton swab and incubated at 37° C. with agitation at 250 rpm for 6 h. The cell density was determined at 600 nm on a dual wavelength spectrometer and diluted to 0.5 McFarland Standard (1.5×10^8 cells/mL) with sterile PBS. Ten μL of the diluted culture was inoculated into 140 μL of 30% plasma in PAS, 30% PC by volume in PAS or 100% plasma, supplemented with or without 1 mM DANA, in the wells of 96-well PVC plates (Corning Biosciences). For each media, six replicates were performed. Ten μL of PBS was inoculated into the control wells. The microtiter plates were then sealed with sterile porous film (VWR) and placed on a platform shaker. The cultures were incubated for 48 h with gentle shaking (˜100 rpm). […] The crystal violet retained by the biofilm was eluted with 200 μL of dimethyl sulfoxide (DMSO) or 30% acetic acid, and read at 595 nm.

[3] = test system: Serratia marcescens strain (ATCC #43862); assay: Biofilm formation of S. marcescens, crystal violet; type: cell-based; conditions: 1 mM DANA, 48 h, crystal violet A595 nm
Description: To prepare the seed culture, the cryostock of Serratia marcescens was inoculated into 3 mL of brain-heart infusion broth with a cotton swab and incubated at 37° C. with agitation at 250 rpm for 6 h. The cell density was determined at 600 nm on a dual wavelength spectrometer and diluted to 0.5 McFarland Standard (1.5×10^8 cells/mL) with sterile PBS. Ten μL of the diluted culture was inoculated into 140 μL of 30% plasma in PAS, 30% PC by volume in PAS or 100% plasma, supplemented with or without 1 mM DANA, in the wells of 96-well PVC plates (Corning Biosciences). For each media, six replicates were performed. Ten μL of PBS was inoculated into the control wells. The microtiter plates were then sealed with sterile porous film (VWR) and placed on a platform shaker. The cultures were incubated for 48 h with gentle shaking (˜100 rpm). The cultures were gently mixed and transferred to a polystyrene plate for the determination of planktonic cell density at OD 595 nm. The wells on the original microtiter plates were washed with 3×200 μL of PBS, air dried, stained for 15 min with an aqueous solution of 0.1% (wt/vol) crystal violet, rinsed with water, and air dried for 1 hr. The crystal violet retained by the biofilm was eluted with 200 μL of dimethyl sulfoxide (DMSO) or 30% acetic acid, and read at 595 nm.

human platelets [4] = assay: Human platelets stored in plasma at RT, P-selectin surface expression (CD62P-FITC); type: cell-based; conditions: stored in plasma with DANA
human platelets [5] = assay: Human platelets stored in 30% plasma and 70% PASa at RT, flow cytometry and pH; type: cell-based; conditions: 7 days at RT
Description: Human platelets were obtained as described in Example 13. The platelet pellet was resuspended in PPP, ⅕ volumes of original PRP, and aliquoted into wells of a 96-well microtiter plate (60 μL per well). PAS (designated as PASa), containing 7.15 mM Na2HPO4, 2.24 mM NaH2PO4, 10 mM sodium citrate, 30 mM sodium acetate, 79.2 mM NaCl, 5.0 mM KCl, and 1.5 mM MgCl2, was added to corresponding wells at 140 μL per well, DANA was added to 0, 0.1, and 0.5 mM from 10 or 100 mM stock in PBS to proper wells. The sample volumes in the wells were evened out with PBS. The plate was then covered with a gas-permeable film and placed on a shaker. Platelet size and density were measured by forward (FSC) and side scatter (SSC) on a FACSCalibur flow cytometer (BD) at Day 7, and pH was checked at Day 9.

mouse platelets [6] = assay: In vivo survival of biotinylated platelets after injection of sialidase inhibitor; conditions: mice injected with 100 mM DANA vs PBS
Description: These studies then addressed whether inhibition of sialidase activity in vivo has an effect on platelet survival. […] Mice were injected with 100 mM DANA or PBS (phosphate buffered saline) as a control, after in vivo platelet biotinylation.

CC(=O)NC1C(O)C=C(C(=O)O)OC1C(O)C(O)CO (stereo not shown) [DANA]
loss (shedding) of platelet GPIbα and GPV induced by sialidase/neuraminidase, in presence of inhibitor (mouse platelets [1]): completely prevented this loss; also recorded: prevented all GPIbα and GPV shedding; also recorded: inhibits the loss of platelet GPIbα | bacterial growth (planktonic cell density) [2]: inhibited the bacterial growth under all conditions | formation of biofilm [3]: negatively impacted | exposure of P-selectin (human platelets [4]): significantly prevented the exposure of P-selectin | α-granule release (human platelets [4]): inhibited α-granule release | platelet microparticles (G2) (human platelets [5]; 0.1 mM DANA (41.5% without)): 23.95% | total acquired events gated as platelets (G1) (human platelets [5]; 0.1 mM DANA (55% without)): over 70% | platelet microparticles (G2) (human platelets [5]; 0.5 mM DANA): 13.52% | total acquired events gated as platelets (G1) (human platelets [5]; 0.5 mM DANA): 81.6% | survival of biotinylated platelets in vivo (mouse platelets [6]): increases mouse platelet life span in vivo; also recorded: increases the survival
